The source of these data is US7759366B2 (Sanofi-Aventis, priority 2006, dated 2010).

The target of test [1] is T1, hCB1R (Homo sapiens, UniProt P21554). The test is described as follows: In vitro functional assay (FLIPR, intracellular Ca2+) with recombinant HEK293 cells, CB1. The test is classed as cell-based. Also on record: expressed in transfected cells; host or cells: HEK293. From the text:
In Vitro Functional Assays with Recombinant Cells:

Another test deals with hCB2R (Homo sapiens, UniProt P34972). The test is described as follows: In vitro functional assay (FLIPR, intracellular Ca2+) with recombinant HEK293 cells, CB2.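 Note: intracellular Ca2+ was tracked with the fluorescent dye Fluo-4 loaded into the cells before test substance addition.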
Sequence of hCB2R (P34972 whole entry): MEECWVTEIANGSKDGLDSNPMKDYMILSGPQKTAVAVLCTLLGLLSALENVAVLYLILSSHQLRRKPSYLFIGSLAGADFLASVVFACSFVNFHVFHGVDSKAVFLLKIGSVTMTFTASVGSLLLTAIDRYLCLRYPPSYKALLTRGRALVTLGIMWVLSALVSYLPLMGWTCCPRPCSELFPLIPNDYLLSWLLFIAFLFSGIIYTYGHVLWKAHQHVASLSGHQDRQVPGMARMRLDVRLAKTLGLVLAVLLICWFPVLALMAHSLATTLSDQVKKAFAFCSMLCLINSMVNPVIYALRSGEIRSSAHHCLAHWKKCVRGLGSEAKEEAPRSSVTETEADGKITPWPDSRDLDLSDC
Test [2] deals with T1, hCB1R. The test is described as follows: Binding to the CB1 receptor ([3H]-SR141716A displacement). A digest of the protocol: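 [3H]-SR141716A displacement at hCB1R; test compounds at final 10 μM to 0.005 μM in assay buffer with 1% DMSO, duplicate determinations. Low control 1 μM AM 251, high control binding without compound; IC50 from curve fit, converted to Ki via Cheng-Prusoff using Kd.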

The mark [3] stands for this setting: read-out: hCB2R: FLIPR, IC50, recombinant HEK293 cells expressing CB2 and Galpha16, 20 min preincubation, then reference agonist, Ca2+ change.
[4] abbreviates: recombinant HEK293 cells expressing CB1 and Galpha16, 20 min preincubation, then reference agonist, Ca2+ change, read-out: hCB1R: FLIPR, IC50.
[5] abbreviates: CHO-K1/cannabinoid CB1 protein 2 μg/well, [3H]-SR141716A 0.5 nM, Ki from IC50 by Cheng-Prusoff, average of double determination, read-out: hCB1R, binding Ki.

Counter-ions that a name gives are not always drawn. Like-named read-outs stand apart in the source and are kept apart here. Some results are limits rather than exact numbers.

T1 sequence (P21554 whole entry): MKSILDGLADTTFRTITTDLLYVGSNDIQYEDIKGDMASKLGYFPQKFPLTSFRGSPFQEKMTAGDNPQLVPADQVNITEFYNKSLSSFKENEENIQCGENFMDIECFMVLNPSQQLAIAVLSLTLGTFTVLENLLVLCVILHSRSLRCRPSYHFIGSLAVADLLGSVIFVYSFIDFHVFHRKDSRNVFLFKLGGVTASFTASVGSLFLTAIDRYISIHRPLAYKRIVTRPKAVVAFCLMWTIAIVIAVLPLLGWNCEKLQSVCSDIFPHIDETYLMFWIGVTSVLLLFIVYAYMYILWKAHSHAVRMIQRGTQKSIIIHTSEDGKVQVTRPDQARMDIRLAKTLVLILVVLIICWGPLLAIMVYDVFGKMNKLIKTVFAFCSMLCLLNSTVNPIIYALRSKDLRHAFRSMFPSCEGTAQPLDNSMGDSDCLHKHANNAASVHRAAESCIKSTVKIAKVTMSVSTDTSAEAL
Procedure for hCB2R: Function-testing assays were performed by means of the FLIPR technique (“Fluorometric Imaging Plate Reader”, Molecular Devices Corp.).
To this end, ligand-induced changes in the intracellular concentration of Ca^2+ in recombinant HEK293 cells, which expressed both a cannabinoid receptor (CB1 or CB2) and G-protein Galpha16, were determined. For the studies, cells were sown into 96-well microtiter plates (60 000 cells/well) and left to grow overnight. The medium was removed and the cells were incubated in buffer which contained the fluorescent dye Fluo-4. After this loading with dye, the cells were washed, test substance was added dissolved in buffer, the mixture was incubated for 20 minutes, a known cannabinoid receptor agonist as a reference agonist was added in buffer and, finally, the changes in the intracellular Ca^2+ concentration were measured in the FLIPR unit.

On to `CC1(C)C(=O)N(c2ccc(C#N)c(C(F)(F)F)c2)C(=O)N1Cc1ccccc1Nc1ccc(F)cc1` [Example 2, 4-{3-[2-(4-fluorophenylamino)benzyl]-4,4-dimethyl-2,5-dioxoimidazolidin-1-yl}-2-trifluoromethylbenzonitrile], for which the figures for the IC50 at hCB1R [1] and on hCB2R (setting [3]) were 11 nM and > 10000 nM, respectively.
As to `CC1(C)C(=O)N(c2ccc(C#N)c(C(F)(F)F)c2)C(=O)N1Cc1ccc(Nc2ccccc2)cc1` [Example 30, 4-[4,4-Dimethyl-2,5-dioxo-3-(4-phenylaminobenzyl)imidazolidin-1-yl]-2-trifluoromethylbenzonitrile], the IC50 on hCB1R [1] (setting [4]) was 208 nM; on hCB2R, > 10000 nM.
Turning to `CC1(C)C(=O)N(c2ccc(C#N)c(C(F)(F)F)c2)C(=O)N1Cc1c(Cl)cc(Cl)cc1Nc1ccc(F)cc1F` [Example 36, 4-{3-[2,4-dichloro-6-(2,4-difluorophenylamino)benzyl]-4,4-dimethyl-2,5-dioxoimidazolidin-1-yl}-2-trifluoromethylbenzonitrile], the IC50 on hCB1R [1] is 11 nM; on hCB2R (setting [3]), > 10000 nM.
As for `CC1(C)C(=O)N(c2ccc(C#N)c(C(F)(F)F)c2)C(=O)N1Cc1ccc(C(F)(F)F)cc1Nc1ccc(F)cc1` [Example 55, 4-{3-[2-(4-Fluorophenylamino)-4-trifluoromethylbenzyl]-4,4-dimethyl-2,5-dioxoimidazolidin-1-yl}-2-trifluoromethylbenzonitrile], the IC50 at hCB1R [1] (setting [4]) was 10 nM. This compound showed a Ki at hCB1R [2] of 8 nM.
`CC1(C)C(=O)N(c2ccc(C#N)c(C(F)(F)F)c2)C(=O)N1Cc1ccc(C(F)(F)F)cc1Nc1ccc(Cl)cc1` [Example 57, 4-{3-[2-(4-chlorophenylamino)-4-trifluoromethylbenzyl]-4,4-dimethyl-2,5-dioxoimidazolidin-1-yl}-2-trifluoromethylbenzonitrile]: the IC50 at hCB1R [1] is 36 nM; at hCB2R (setting [3]), > 10000 nM.
Consider `CC1(C)C(=O)N(c2ccc(C#N)c(C(F)(F)F)c2)C(=O)N1Cc1ccccc1Nc1ccc(S(N)(=O)=O)cc1` [Example 68, 5,5-4-{2-[3-(4-Cyano-3-trifluoromethylphenyl)-5,5-dimethyl-2,4-dioxoimidazolidin-1-ylmethyl]phenylamino}benzene sulfonamide], for which the IC50 on hCB1R [1] (setting [4]) came out at 44 nM. Further, the Ki at hCB1R [2] was 16 nM.
As for `CC1(C)C(=O)N(c2ccc(C#N)c(C(F)(F)F)c2)C(=O)N1Cc1ccccc1Nc1ccc(C#N)cc1F` [Example 73, 4-{3-[2-(2-fluoro-4-cyanophenylamino)benzyl]-4,4-dimethyl-2,5-dioxoimidazolidin-1-yl}-2-trifluoromethylbenzonitrile], the figures for the IC50 on hCB1R [1] and at hCB2R (setting [3]) were 7 nM and > 10000 nM, respectively.
As to `COc1ccc(Nc2ccccc2CN2C(=O)N(c3ccc(C#N)c(C(F)(F)F)c3)C(=O)C2(C)C)c(F)c1` [Example 74, 4-{3-[2-(2-fluoro-4-methoxyphenylamino)benzyl]-4,4-dimethyl-2,5-dioxoimidazolidin-1-yl}-2-trifluoromethylbenzonitrile], the IC50 at hCB1R [1] was 4 nM; on hCB2R (setting [3]), > 10000 nM.
In the case of `COc1ccc(Nc2ccccc2CN2C(=O)N(c3ccc(C#N)c(C(F)(F)F)c3)C(=O)C2(C)C)cc1OC` [Example 75, 4-{3-[2-(3,4-dimethoxyphenylamino)benzyl]-4,4-dimethyl-2,5-dioxoimidazolidin-1-yl}-2-trifluoromethylbenzonitrile], the IC50 at hCB1R [1] was 49 nM; at hCB2R (setting [3]) it was > 10000 nM.
The like results for `CC1(C)C(=O)N(c2ccc(C#N)c(C(F)(F)F)c2)C(=O)N1Cc1ccccc1Nc1ccc(CC#N)cc1` [Example 78, 4-{3-[2-(4-cyanomethylphenylamino)benzyl]-4,4-dimethyl-2,5-dioxoimidazolidin-1-yl}-2-trifluoromethylbenzonitrile] were, in that order, 4 nM and > 10000 nM.
For `CC1(C)C(=O)N(c2ccc(C#N)c(C(F)(F)F)c2)C(=O)N1Cc1ccccc1Nc1ccc(S(N)(=O)=O)cc1F` [Example 81, 4-{2-[3-(4-cyano-3-trifluoromethylphenyl)-5,5-dimethyl-2,4-dioxoimidazolidin-1-ylmethyl]phenylamino}-3-fluorobenzenesulfonamide], the values for the IC50 on hCB1R [1] (setting [4]) and at hCB2R were 144 nM and > 10000 nM, respectively.
Consider `COC(=O)Cc1ccc(Nc2ccccc2CN2C(=O)N(c3ccc(C#N)c(C(F)(F)F)c3)C(=O)C2(C)C)cc1` [Example 82, methyl (4-{2-[3-(4-cyano-3-trifluoromethylphenyl)-5,5-dimethyl-2,4-dioxoimidazolidin-1-ylmethyl]phenylamino}phenyl)acetate], for which the IC50 was 52 nM on hCB1R [1] and > 10000 nM at hCB2R (setting [3]).
In the same order, the values of `COc1ccc(Nc2ccccc2CN2C(=O)N(c3ccc(C#N)c(C(F)(F)F)c3)C(=O)C2(C)C)cn1` [Example 83, 4-{3-[2-(6-methoxypyridin-3-ylamino)benzyl]-4,4-dimethyl-2,5-dioxoimidazolidin-1-yl}-2-trifluoromethylbenzonitrile] are 9 nM and > 10000 nM.
Take `CC1(C)C(=O)N(c2ccc(C#N)c(C(F)(F)F)c2)C(=O)N1Cc1ccccc1Nc1ccc(OC(F)(F)F)cc1F` [Example 85, 4-{3-[2-(2-fluoro-4-trifluoromethoxyphenylamino)benzyl]-4,4-dimethyl-2,5-dioxoimidazolidin-1-yl}-2-trifluoromethylbenzonitrile]: the IC50 at hCB1R [1] was 7 nM; at hCB2R (setting [3]) it was > 10000 nM.
As for `COC(=O)c1ccc(Nc2ccccc2CN2C(=O)N(c3ccc(C#N)c(C(F)(F)F)c3)C(=O)C2(C)C)cn1` [Example 90, methyl 5-{2-[3-(4-cyano-3-trifluoromethylphenyl)-5,5-dimethyl-2,4-dioxoimidazolidin-1-ylmethyl]phenylamino}pyridine-2-carboxylate], the IC50 on hCB1R [1] is 39 nM; on hCB2R (setting [3]) it was > 10000 nM.
In the same order, the values of `CC1(C)C(=O)N(c2ccc(C#N)c(C(F)(F)F)c2)C(=O)N1Cc1ccccc1Nc1ccc(C(F)(F)F)nc1` [Example 91, 4-{4,4-dimethyl-2,5-dioxo-3-[2-(6-trifluoromethylpyridin-3-ylamino)benzyl]-imidazolidin-1-yl}-2-trifluoromethylbenzonitrile] are 30 nM and > 10000 nM.
Turning to `CC1(C)C(=O)N(c2ccc(C#N)c(C(F)(F)F)c2)C(=O)N1Cc1ccccc1Nc1ccc(CC(=O)O)cc1` [Example 92, (4-{2-[3-(4-cyano-3-trifluoromethylphenyl)-5,5-dimethyl-2,4-dioxoimidazolidin-1-ylmethyl]phenylamino}phenyl)acetic acid], the figures for the IC50 on hCB1R [1] (setting [4]) and at hCB2R were 137 nM and > 10000 nM, respectively.
For the compound `CC1(C)C(=O)N(c2ccc(C#N)c(C(F)(F)F)c2)C(=O)N1Cc1ccccc1Nc1ccc(CC(N)=O)cc1` [Example 97, 2-(4-{2-[3-(4-Cyano-3-trifluoromethylphenyl)-5,5-dimethyl-2,4-dioxoimidazolidin-1-ylmethyl]phenylamino}phenyl)acetamide], the IC50 on hCB1R [1] was 7 nM; at hCB2R (setting [3]), > 10000 nM.
Consider `CC1(C)C(=O)N(c2ccc(C#N)c(C(F)(F)F)c2)C(=O)N1Cc1ccccc1Nc1ccc(C(N)=O)cc1` [Example 136, 4-{2-[3-(4-Cyano-3-trifluoromethylphenyl)-5,5-dimethyl-2,4-dioxoimidazolidin-1-ylmethyl]phenylamino}benzamide], for which the IC50 on hCB1R [1] was 5 nM; on hCB2R (setting [3]), > 10000 nM.
On to `CC1(C)C(=O)N(c2ccc(C#N)c(C(F)(F)F)c2)C(=O)N1Cc1ccccc1Nc1ccc(C(=O)NC(CO)CO)cc1` [Example 137, 4-{2-[3-(4-cyano-3-trifluoromethylphenyl)-5,5-dimethyl-2,4-dioxoimidazolidin-1-ylmethyl]phenylamino}-N-(2-hydroxy-1-hydroxymethylethyl)benzamide], for which, on hCB1R [2], the Ki came out at 51 nM. Moreover, the IC50 at hCB2R (setting [3]) is > 10000 nM.
Consider `CCOC(=O)COc1ccc(Nc2ccccc2CN2C(=O)N(c3ccc(C#N)c(C(F)(F)F)c3)C(=O)C2(C)C)cc1` [Example 138, ethyl (4-{2-[3-(4-cyano-3-trifluoromethylphenyl)-5,5-dimethyl-2,4-dioxoimidazolidin-1-ylmethyl]phenylamino}phenoxy)acetate], for which the IC50 on hCB1R [1] is 4 nM; at hCB2R (setting [3]), > 10000 nM.
Take `CC1(C)C(=O)N(c2ccc(F)c(C(F)(F)F)c2)C(=O)N1Cc1ccccc1Nc1ccc(C(=N)NO)cc1` [Example 143, 4-{2-[3-(4-Fluoro-3-trifluoromethylphenyl)-5,5-dimethyl-2,4-dioxoimidazolidin-1-ylmethyl]phenylamino}-N-hydroxybenzamidine hydrochloride]: the figures for the IC50 on hCB1R [1] (setting [4]) and on hCB2R were 13 nM and > 10000 nM, respectively.
As to `COC(=O)c1ccc(Nc2cc(F)ccc2CN2C(=O)N(c3ccc(C#N)c(-c4ccc(Cl)cc4)c3)C(=O)C2(C)C)cc1` [Example 224, methyl 4-{2-[3-(4′-chloro-6-cyanobiphenyl-3-yl)-5,5-dimethyl-2,4-dioxoimidazolidin-1-ylmethyl]-5-fluorophenylamino}benzoate], the Ki on hCB1R [2] (setting [5]) was found to be 6 nM.
As for `CC1(C)C(=O)N(c2ccc(C#N)c(-c3ccccc3)c2)C(=O)N1Cc1ccc(F)cc1Nc1ccc(C(=O)O)cc1` [Example 227, 4-{2-[3-(6-cyanobiphenyl-3-yl)-5,5-dimethyl-2,4-dioxoimidazolidin-1-ylmethyl]-5-fluorophenylamino}benzoic acid], the IC50 on hCB1R [1] (setting [4]) came to 16 nM. Also, the Ki on hCB1R [2] (setting [5]) turned out to be 36 nM.
